{"source": "patent US20240058387A1", "about": "“CULTURE MEDIUM COMPOSITION FOR AMPLIFYING AND MAINTAINING SELF-RENEWAL CAPACITY AND DIFFERENTIATION POTENTIAL OF HSCS AND APPLICATION THEREOF” (EDIGENE (GUANGZHOU) INC., priority 2020, published 2024)", "system": "umbilical cord blood-derived CD34+ cells", "test": "In vitro colony-forming unit (CFU) assay", "type": "cell-based, human", "details": "FIG. 6, clones counted 14 days after seeding", "experimental": "In this example, the colony-forming unit (CFU) was used to detect the in vitro function of cord blood-derived hematopoietic stem cells induced by a small molecule inhibitor for qualitative and quantitative detection to verify their in vitro differentiation potential.\nFirst, 100 mL of medium MethoCult™ H4034 Optimum (Stem Cell, Cat. No.: 04034) were aliquoted, then thawing at 2-8° C. overnight; shaking vigorously for 1-2 minutes and letting it stand for 10 minutes until the bubbles rised to the liquid level. After tightly fitting the 50 mL syringe needle to the 5 mL disposable syringe, the medium is aspirated to 1 mL, pushing out the syringe completely to exhaust the gas in the syringe, and re-absorbing 3 mL into each 15 mL centrifuge tube (Corning, Cat. No. 430791); storing at 2-8° C. for 1 month, and at −20° C. for long-term storage.\n3 mL of medium Meth® Cult′ H4034 Optimum was prepared and thawed overnight at room temperature (15-25° C.) or 2-8° C. […]\nColonies were observed on the 7th and 14th days of culture, and colonies were counted with a STEMgrid™-6 counting grid (stem cell, Cat. number: 27000) after 14 days of culture. […]"}
{"smiles": "COc1cc2ncc(-c3ccccc3)nc2cc1OC", "note": "[AG1296]", "values": [{"measurement": "number of GEMM clones (CFU-GEMM)", "setting": "1 μM, 8 days treatment", "result": "significantly better than the other groups"}, {"measurement": "total number of clones", "setting": "different concentrations of AG1296, 8 days treatment", "result": "little difference between the groups"}]}
